# Measured values as given in US20230085307A1, “PYRIDAZINONE COMPOUND AND HERBICIDE” (NISSAN CHEMICAL CORPORATION, priority 2019, published 2023).
# Columns and labels:
# rice flat sedge = test: Test Example 3: herbicidal effect by foliage application, Wagner pot (Table 18, symbol E); format: in vivo, rice flat sedge (Cyperus iria)
# Outline: (§1)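 Plants were sown in alluvial soil held under 0.1–0.5 cm standing water and grown 14 days in a greenhouse at 25–30 °C. An emulsifiable formulation, water-diluted to the set dose, was then sprayed onto the foliage, and effects were scored three weeks later using previously defined criteria.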
# chickweed [1] = test: Test Example 4: herbicidal effect by soil treatment (Table 19, symbol P); format: in vivo, common chickweed (Stellaria media); conditions: amount of applied herbicide 320 g/ha
# Outline: (§2)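 Seeds were sown in sterilized diluvial soil and covered with about 1.5 cm of soil. An emulsion formulation diluted with water to a predetermined herbicide amount was sprayed evenly onto the soil surface. Plants grew in a greenhouse at 25° C. to 30° C., and the effect was scored three weeks after application using criteria from an earlier test.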
# green foxtail [2] = test: Test Example 5: herbicidal effect by foliage application, plastic box (Table 20, symbol G); format: in vivo, green foxtail (Setaria viridis); conditions: foliage application
# Outline: (§3)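 Plants sown in sterilized diluvial soil and grown 14 days in a greenhouse at 25° C to 30° C, then sprayed on the foliage with the compound's emulsion diluted in water to a predetermined herbicide amount. Injury to weeds and crops scored three weeks after application on a visual rating scale.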
# Italian ryegrass = test: Test Example 5: herbicidal effect by foliage application, plastic box (Table 20, symbol K); format: in vivo, Italian ryegrass (Lolium multiflorum); conditions: foliage application
# Outline: as §3
# redroot pigweed [3] = test: Test Example 4: herbicidal effect by soil treatment (Table 19, symbol N); format: in vivo, redroot pigweed (Amaranthus retroflexus); conditions: amount of applied herbicide 320 g/ha
# Outline: as §2
# barnyard grass [4] = test: Test Example 4: herbicidal effect by soil treatment (Table 19, symbol H); format: in vivo, barnyard grass (Echinochloa crus-galli); conditions: amount of applied herbicide 320 g/ha
# Outline: as §2
# blackgrass = test: Test Example 5: herbicidal effect by foliage application, plastic box (Table 20, symbol J); format: in vivo, blackgrass (Alopecurus myosuroides); conditions: foliage application
# Outline: as §3
# southern crabgrass = test: Test Example 5: herbicidal effect by foliage application, plastic box (Table 20, symbol F); format: in vivo, southern crabgrass (Digitaria ciliaris); conditions: foliage application
# Outline: as §3
# barnyard grass [5] = test: Test Example 3: herbicidal effect by foliage application, Wagner pot (Table 18, symbol H); format: in vivo, barnyard grass (Echinochloa crus-galli)
# Outline: as §1
# green foxtail [6] = test: Test Example 4: herbicidal effect by soil treatment (Table 19, symbol G); format: in vivo, green foxtail (Setaria viridis); conditions: amount of applied herbicide 320 g/ha
# Outline: as §2
# chickweed [7] = test: Test Example 5: herbicidal effect by foliage application, plastic box (Table 20, symbol P); format: in vivo, common chickweed (Stellaria media); conditions: foliage application
# Outline: as §3
# oval-leafed pondweed = test: Test Example 1: herbicidal activity, application before weed generation under submerged conditions (Table 16, symbol C); format: in vivo, oval-leafed pondweed (Monochoria vaginalis); conditions: 320 g/ha applied herbicide
# Outline: (§4)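 Submerged Wagner pots (alluvial soil, 4 cm water) sown with weed seeds and planted with 2.5-leaf rice seedlings; emulsifiable concentrate diluted in water applied to water surface on sowing day. Held in greenhouse at 25-30 °C; injury scored 0-5 by herbicidal rate after three weeks.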
# late watergrass = test: Test Example 1: herbicidal activity, application before weed generation under submerged conditions (Table 16, symbol A); format: in vivo, late watergrass (Echinochloa oryzicola); conditions: 320 g/ha applied herbicide
# Outline: as §4
# Japanese bulrush = test: Test Example 2: herbicidal activity, application during weed generation under submerged conditions (Table 17, symbol B); format: in vivo, Japanese bulrush (Schoenoplectus juncoides); conditions: AAH 320 g/ha; application during weed generation, submerged conditions
# Outline: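 Effect on each weed is rated three weeks post-treatment, using the same scoring criteria as the preceding test. Plants grow from mixed-sown seed in flooded alluvial soil (4 cm water) at 25° C. to 30° C., and are treated at one to two leaves with diluted emulsion dropped onto the water.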
# velvetleaf = test: Test Example 4: herbicidal effect by soil treatment (Table 19, symbol M); format: in vivo, velvetleaf (Abutilon theophrasti); conditions: amount of applied herbicide 320 g/ha
# Outline: as §2
# redroot pigweed [8] = test: Test Example 5: herbicidal effect by foliage application, plastic box (Table 20, symbol N); format: in vivo, redroot pigweed (Amaranthus retroflexus); conditions: foliage application
# Outline: as §3
# [9] = amount of applied herbicide 320 g/ha
# [10] = AAH 320 g/ha, evaluated three weeks after application
# [11] = 320 g/ha, three weeks after application
smiles,measurement,setting,value
Cc1nn(C)c(=O)c(-c2c(-c3ccc(CSCC(F)(F)F)cc3)sc3ccc(F)cc23)c1O [2-331],herbicidal effect on E: rice flat sedge,rice flat sedge; [9],4 (Herbicidal rate of 70% or more and less than 90%)
same,herbicidal effect on P: chickweed,chickweed [1],0 (Herbicidal rate of 5% or less (almost no effect))
same,"G: green foxtail, herbicidal effect (criteria 0-5)",green foxtail [2]; [10],5 (Herbicidal rate of 90% or more (almost completely withered))
same,"K: Italian ryegrass, herbicidal effect (criteria 0-5)",Italian ryegrass; [10],4 (Herbicidal rate of 70% or more and less than 90%)
same,herbicidal effect on N: redroot pigweed,redroot pigweed [3],5 (Herbicidal rate of 90% or more (almost completely withered))
same,herbicidal effect on H: barnyard grass,barnyard grass [4],3 (Herbicidal rate of 40% or more and less than 70%)
same,"J: blackgrass, herbicidal effect (criteria 0-5)",blackgrass; [10],4 (Herbicidal rate of 70% or more and less than 90%)
same,"F: southern crabgrass, herbicidal effect (criteria 0-5)",southern crabgrass; [10],5 (Herbicidal rate of 90% or more (almost completely withered))
same,herbicidal effect on H: barnyard grass,barnyard grass [5]; [9],5 (Herbicidal rate of 90% or more (almost completely withered))
same,herbicidal effect on G: green foxtail,green foxtail [6],4 (Herbicidal rate of 70% or more and less than 90%)
same,"P: chickweed, herbicidal effect (criteria 0-5)",chickweed [7]; [10],5 (Herbicidal rate of 90% or more (almost completely withered))
same,Herbicidal effect on C: oval-leafed pondweed (grade 0-5),oval-leafed pondweed,0 (Herbicidal rate of 5% or less (almost no effect))
same,Herbicidal effect on A: late watergrass (grade 0-5),late watergrass,3 (Herbicidal rate of 40% or more and less than 70%)
same,"herbicidal effect rating, B: Japanese bulrush",Japanese bulrush,0 (Herbicidal rate of 5% or less (almost no effect))
same,herbicidal effect on M: velvetleaf,velvetleaf,2 (Herbicidal rate of 20% or more and less than 40%)
same,"N: redroot pigweed, herbicidal effect (criteria 0-5)",redroot pigweed [8]; [10],5 (Herbicidal rate of 90% or more (almost completely withered))
Cc1nn(C)c(=O)c(-c2c(-c3ccc(OC(C)C)cc3)sc3ccccc23)c1O [1-020],"herbicidal effect on E (rice flat sedge), rating 0-5",rice flat sedge; 320 g/ha,5 (Herbicidal rate of 90% or more (almost completely withered))
same,"herbicidal effect rating, P: chickweed",chickweed [1],3 (Herbicidal rate of 40% or more and less than 70%)
same,"herbicidal effect grade, G: green foxtail",green foxtail [2]; [11],3 (Herbicidal rate of 40% or more and less than 70%)
same,"herbicidal effect grade, K: Italian ryegrass",Italian ryegrass; [11],3 (Herbicidal rate of 40% or more and less than 70%)
same,"herbicidal effect rating, N: redroot pigweed",redroot pigweed [3],0 (Herbicidal rate of 5% or less (almost no effect))
same,"herbicidal effect rating, H: barnyard grass",barnyard grass [4],5 (Herbicidal rate of 90% or more (almost completely withered))
same,"herbicidal effect grade, J: blackgrass",blackgrass; [11],4 (Herbicidal rate of 70% or more and less than 90%)
same,"herbicidal effect grade, F: southern crabgrass",southern crabgrass; [11],3 (Herbicidal rate of 40% or more and less than 70%)
same,"herbicidal effect on H (barnyard grass), rating 0-5",barnyard grass [5]; 320 g/ha,5 (Herbicidal rate of 90% or more (almost completely withered))
same,"herbicidal effect rating, G: green foxtail",green foxtail [6],5 (Herbicidal rate of 90% or more (almost completely withered))
same,"herbicidal effect grade, P: chickweed",chickweed [7]; [11],5 (Herbicidal rate of 90% or more (almost completely withered))
same,Herbicidal effect on C: oval-leafed pondweed (grade 0-5),oval-leafed pondweed,4 (Herbicidal rate of 70% or more and less than 90%)
same,Herbicidal effect on A: late watergrass (grade 0-5),late watergrass,4 (Herbicidal rate of 70% or more and less than 90%)
same,"herbicidal effect rating, B: Japanese bulrush",Japanese bulrush,3 (Herbicidal rate of 40% or more and less than 70%)
same,"herbicidal effect rating, M: velvetleaf",velvetleaf,0 (Herbicidal rate of 5% or less (almost no effect))
same,"herbicidal effect grade, N: redroot pigweed",redroot pigweed [8]; [11],3 (Herbicidal rate of 40% or more and less than 70%)
